Here are results for 22 molecules from the Kinase Knowledgebase extract (Sharma et al. 2016).

One test addresses EGFR (human) (UniProt P00533).
Test [1] addresses EGFR (human), P00533 [L858R].
The target in test [2] is EGFR (Human), P00533 [Assessment of EGFR-Del T790M Dependent Cell Proliferation in BaF3 Cells].
The target of test [3] is EGFR (Human), P00533 [T790M/L858R].
Test [4] has the same target. To be noted: baf3.

Sequence of EGFR (human), P00533 [L858R] (P00533 whole entry L858R, looked up): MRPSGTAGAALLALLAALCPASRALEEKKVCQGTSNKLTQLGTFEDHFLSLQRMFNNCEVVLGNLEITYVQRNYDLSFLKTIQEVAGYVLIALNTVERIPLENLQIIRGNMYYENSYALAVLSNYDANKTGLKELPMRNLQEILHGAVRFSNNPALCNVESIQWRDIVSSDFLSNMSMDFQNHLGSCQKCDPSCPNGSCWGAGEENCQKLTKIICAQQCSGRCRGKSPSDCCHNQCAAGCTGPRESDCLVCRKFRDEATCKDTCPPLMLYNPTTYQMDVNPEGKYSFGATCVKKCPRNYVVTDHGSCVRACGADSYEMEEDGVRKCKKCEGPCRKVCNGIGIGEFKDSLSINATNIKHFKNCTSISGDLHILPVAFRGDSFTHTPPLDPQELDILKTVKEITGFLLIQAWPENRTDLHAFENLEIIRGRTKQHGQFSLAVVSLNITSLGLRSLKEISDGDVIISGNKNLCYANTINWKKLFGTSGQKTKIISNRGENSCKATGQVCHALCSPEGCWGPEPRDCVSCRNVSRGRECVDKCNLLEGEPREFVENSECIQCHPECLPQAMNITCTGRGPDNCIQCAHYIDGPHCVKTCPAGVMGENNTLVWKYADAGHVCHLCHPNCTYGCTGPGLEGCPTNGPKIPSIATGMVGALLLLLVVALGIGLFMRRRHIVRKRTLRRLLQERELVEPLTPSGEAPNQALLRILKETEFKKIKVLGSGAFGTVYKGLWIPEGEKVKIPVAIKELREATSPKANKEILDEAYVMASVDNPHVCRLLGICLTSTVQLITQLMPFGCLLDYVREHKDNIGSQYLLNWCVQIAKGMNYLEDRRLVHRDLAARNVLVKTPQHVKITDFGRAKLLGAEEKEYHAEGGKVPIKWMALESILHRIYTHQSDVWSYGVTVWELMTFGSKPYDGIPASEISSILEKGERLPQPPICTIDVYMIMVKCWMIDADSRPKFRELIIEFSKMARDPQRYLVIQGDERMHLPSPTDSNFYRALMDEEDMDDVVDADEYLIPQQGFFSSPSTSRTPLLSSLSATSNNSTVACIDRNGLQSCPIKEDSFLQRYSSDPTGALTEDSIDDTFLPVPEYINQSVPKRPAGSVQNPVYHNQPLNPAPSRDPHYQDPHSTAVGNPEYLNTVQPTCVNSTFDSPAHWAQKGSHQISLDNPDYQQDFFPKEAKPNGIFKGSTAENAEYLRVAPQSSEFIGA
Sequence of EGFR (Human), P00533 [T790M/L858R] (P00533 whole entry T790M/L858R, looked up): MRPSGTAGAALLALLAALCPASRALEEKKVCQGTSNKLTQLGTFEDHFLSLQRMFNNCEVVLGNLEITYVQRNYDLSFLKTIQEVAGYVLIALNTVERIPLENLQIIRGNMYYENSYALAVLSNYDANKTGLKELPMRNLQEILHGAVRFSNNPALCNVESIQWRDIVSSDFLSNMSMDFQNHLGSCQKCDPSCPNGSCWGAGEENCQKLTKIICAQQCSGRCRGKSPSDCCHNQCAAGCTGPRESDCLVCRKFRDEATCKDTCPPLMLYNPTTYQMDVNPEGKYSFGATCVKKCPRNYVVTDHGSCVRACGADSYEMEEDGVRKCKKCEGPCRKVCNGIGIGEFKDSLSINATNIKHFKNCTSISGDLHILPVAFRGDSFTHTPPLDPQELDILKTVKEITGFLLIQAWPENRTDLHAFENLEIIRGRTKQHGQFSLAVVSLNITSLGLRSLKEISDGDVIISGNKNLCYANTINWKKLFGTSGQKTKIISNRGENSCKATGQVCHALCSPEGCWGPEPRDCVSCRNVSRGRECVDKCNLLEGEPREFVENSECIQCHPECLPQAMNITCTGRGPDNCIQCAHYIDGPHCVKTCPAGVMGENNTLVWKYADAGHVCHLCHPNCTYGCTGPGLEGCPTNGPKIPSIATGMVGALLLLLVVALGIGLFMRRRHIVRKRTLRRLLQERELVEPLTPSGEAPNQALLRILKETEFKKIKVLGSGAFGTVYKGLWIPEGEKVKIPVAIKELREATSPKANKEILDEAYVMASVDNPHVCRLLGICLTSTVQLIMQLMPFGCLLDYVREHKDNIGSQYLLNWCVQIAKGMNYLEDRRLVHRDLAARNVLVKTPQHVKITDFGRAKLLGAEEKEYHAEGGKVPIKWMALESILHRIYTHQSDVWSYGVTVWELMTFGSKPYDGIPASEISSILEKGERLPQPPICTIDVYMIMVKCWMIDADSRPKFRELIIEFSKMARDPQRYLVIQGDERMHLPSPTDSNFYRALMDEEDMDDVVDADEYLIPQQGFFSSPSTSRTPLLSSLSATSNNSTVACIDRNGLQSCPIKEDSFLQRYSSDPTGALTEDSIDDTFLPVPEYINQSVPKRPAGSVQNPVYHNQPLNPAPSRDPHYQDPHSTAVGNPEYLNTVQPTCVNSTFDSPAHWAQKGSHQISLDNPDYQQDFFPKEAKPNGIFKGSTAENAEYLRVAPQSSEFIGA
Sequence of EGFR (Human), P00533 [Assessment of EGFR-Del T790M Dependent Cell Proliferation in BaF3 Cells] (P00533 whole entry, looked up, stated change not applied): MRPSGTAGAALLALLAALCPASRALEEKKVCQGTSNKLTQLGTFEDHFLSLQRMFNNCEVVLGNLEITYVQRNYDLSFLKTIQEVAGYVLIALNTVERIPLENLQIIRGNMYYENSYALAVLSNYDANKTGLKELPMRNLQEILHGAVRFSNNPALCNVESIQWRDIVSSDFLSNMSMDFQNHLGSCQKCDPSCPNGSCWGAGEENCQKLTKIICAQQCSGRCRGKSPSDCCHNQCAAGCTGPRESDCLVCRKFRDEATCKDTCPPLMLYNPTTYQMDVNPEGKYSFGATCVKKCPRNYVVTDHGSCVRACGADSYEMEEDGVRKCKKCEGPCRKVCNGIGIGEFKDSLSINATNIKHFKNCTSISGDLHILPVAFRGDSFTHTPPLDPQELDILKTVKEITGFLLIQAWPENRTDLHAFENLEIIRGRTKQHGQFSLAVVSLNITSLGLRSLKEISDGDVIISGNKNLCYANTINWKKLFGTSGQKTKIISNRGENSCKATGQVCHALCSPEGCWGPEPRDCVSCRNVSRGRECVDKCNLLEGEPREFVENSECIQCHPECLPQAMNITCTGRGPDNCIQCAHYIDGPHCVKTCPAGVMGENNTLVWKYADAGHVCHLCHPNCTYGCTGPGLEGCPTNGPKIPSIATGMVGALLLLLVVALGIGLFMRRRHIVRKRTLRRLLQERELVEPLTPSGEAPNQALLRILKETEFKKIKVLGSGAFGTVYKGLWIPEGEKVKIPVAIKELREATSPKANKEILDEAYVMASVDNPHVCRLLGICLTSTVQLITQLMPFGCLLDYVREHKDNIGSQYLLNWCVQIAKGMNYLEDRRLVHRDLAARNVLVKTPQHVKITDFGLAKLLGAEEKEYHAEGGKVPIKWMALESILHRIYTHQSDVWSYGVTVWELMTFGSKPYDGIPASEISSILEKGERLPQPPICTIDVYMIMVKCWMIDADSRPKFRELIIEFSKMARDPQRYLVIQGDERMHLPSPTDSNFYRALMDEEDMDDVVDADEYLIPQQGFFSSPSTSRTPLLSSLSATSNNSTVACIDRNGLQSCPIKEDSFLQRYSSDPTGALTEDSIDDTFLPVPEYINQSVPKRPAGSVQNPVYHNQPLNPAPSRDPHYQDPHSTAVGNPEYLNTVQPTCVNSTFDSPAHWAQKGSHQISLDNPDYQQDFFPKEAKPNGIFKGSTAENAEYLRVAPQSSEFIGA
Sequence of EGFR (human) (P00533 whole entry, looked up): as the sequence (P00533 whole entry, looked up, stated change not applied) above

Broadly, the IC50 is the concentration that inhibits the measured activity by half. For the molecule `C=CC(=O)Nc1cc(Nc2ncc(Cl)c(Nc3ccccc3P(C)(C)=O)n2)c(OC)cc1N(C)CCN(C)CCF`, the concentration for half-maximal inhibition (IC50) (at EGFR (human); in test [1]; in test [2]; in test [3]; in test [4]) was under 50 nM each time.
Take `C=CC(=O)Nc1cc(Nc2ncc(Cl)c(Nc3ccccc3P(C)(C)=O)n2)c(OC)cc1O[C@@H](COC)CN(C)C`: the IC50 (against EGFR (human); in test [1]; in test [2]; in test [3]; in test [4]) was under 50 nM each time.
For the molecule `COc1cc(F)c(NC(=O)CCl)cc1Nc1ncc(Cl)c(Nc2ccccc2P(C)(C)=O)n1`, the IC50 (at EGFR (human); in test [1]; in test [2]; in test [3]; in test [4]) was under 50 nM each time.
Regarding `C=CC(=O)Nc1cc(Nc2ncc(C3CC3)c(Nc3ccccc3P(C)(C)=O)n2)c(OC)cc1N(C)CCN(CC)CC`, the IC50 (on EGFR (human); in test [1]; in test [2]; in test [3]; in test [4]) was under 50 nM each time.
Take `C=CC(=O)Nc1cc(Nc2ncc(Cl)c(Nc3ccccc3P(C)(C)=O)n2)c(OC)cc1N1CC[C@@H](N(C)C)C1`: the half-inhibitory concentration (IC50) (on EGFR (human); in test [1]; in test [2]; in test [3]; in test [4]) was under 50 nM in each case.
Regarding `C=CC(=O)Nc1cc(Nc2ncc(Cl)c(Nc3ccccc3P(C)(C)=O)n2)c(OC)cc1OC1CCCN(CCOC)C1` (stereo not given), the IC50 (against EGFR (human); in test [1]; in test [2]; in test [3]; in test [4]) was under 50 nM each time.
`C=CC(=O)Nc1ccc(OC)c(Nc2ncc(Cl)c(Nc3ccc(OCCN4CCCCC4)cc3P(C)(C)=O)n2)c1`: the IC50 (at EGFR (human); in test [1]; in test [2]; in test [3]; in test [4]) was under 50 nM throughout.
Take `C=CC(=O)Nc1cc(Nc2ncc(Cl)c(Nc3ccccc3P(C)(C)=O)n2)c(OC)cc1OC1CCCN(C)C1` (stereo not given): the IC50 (against EGFR (human); in test [1]; in test [2]; in test [3]; in test [4]) was under 50 nM in each case.
Consider `C=CC(=O)Nc1cc(Nc2ncc(Cl)c(Nc3ccccc3P(C)(C)=O)n2)c(OC)cc1OCCCN1CCOCC1`, for which the 50% inhibitory concentration (IC50) on EGFR (human) is 101 to 250 nM; in test [1], under 50 nM; in test [2], 101 to 250 nM; in test [3] it was under 50 nM; in test [4], 101 to 250 nM.
`CC#CC(=O)Nc1cc(Nc2ncc(Cl)c(Nc3ccccc3P(C)(C)=O)n2)c(OC)cc1N1CCC(N(C)C)C1` (stereo not given): the IC50 is under 50 nM at EGFR (human); under 50 nM in test [1]; under 50 nM in test [2]; under 50 nM in test [3]; 50 to 100 nM in test [4].
Consider `C=CC(=O)Nc1cc(Nc2ncc(Cl)c(Nc3ccccc3P(C)(C)=O)n2)c(OC)cc1N1CCC(O)C1` (stereo not given), for which the IC50 was under 50 nM against EGFR (human); under 50 nM in test [1]; 50 to 100 nM in test [2]; under 50 nM in test [3]; 101 to 250 nM in test [4].
As to `C=CC(=O)Nc1cc(Nc2ncc(Cl)c(Nc3ccccc3P(C)(C)=O)n2)c(OC)cc1C#CCN1CCCCC1`, the 50% inhibitory concentration (IC50) (against EGFR (human); in test [1]; in test [2]; in test [3]; in test [4]) was under 50 nM throughout.
`C=CC(=O)Nc1cc(Nc2ncc(Cl)c(Nc3ccccc3P(C)(C)=O)n2)c(OC)cc1N1CCC(N2CCOCC2)CC1`: the concentration for half-maximal inhibition (IC50) (against EGFR (human); in test [1]; in test [2]; in test [3]; in test [4]) was under 50 nM each time.
Turning to `C=CC(=O)Nc1cc(Nc2ncc(Cl)c(Nc3ccccc3P(C)(C)=O)n2)c(OC)cc1N1CCC(N(C)CCOC)C1` (stereo not given), the IC50 (against EGFR (human); in test [1]; in test [2]; in test [3]; in test [4]) was under 50 nM in each case.
In the case of `Cc1ccc(NC(=O)CCl)cc1Nc1ncc(Cl)c(Nc2ccccc2P(C)(C)=O)n1`, the 50% inhibitory concentration (IC50) (against EGFR (human); in test [1]; in test [2]; in test [3]; in test [4]) was under 50 nM throughout.
With `C=CC(=O)Nc1cc(Nc2ncc(Cl)c(Nc3ccccc3P(C)(C)=O)n2)c(OC)cc1C#CCN1CCCC1`, the half-maximal inhibitory concentration (IC50) (at EGFR (human); in test [1]; in test [2]; in test [3]; in test [4]) was under 50 nM in each case.
Take `C=CC(=O)Nc1ccc(OC)c(Nc2ncc(Cl)c(Nc3ccc(OCCN(C)C)cc3P(C)(C)=O)n2)c1`: the IC50 (against EGFR (human); in test [1]; in test [2]; in test [3]; in test [4]) was under 50 nM throughout.
For `COc1cc(F)c(NC(=O)C#CCCN2CCCCC2)cc1Nc1ncc(Cl)c(Nc2ccccc2P(C)(C)=O)n1`, the IC50 (at EGFR (human); in test [1]; in test [2]; in test [3]; in test [4]) was under 50 nM throughout.
On to `C=CC(=O)Nc1cc(Nc2ncc(Cl)c(Nc3ccccc3P(C)(C)=O)n2)c(OC)cc1N1CCC(N2CCN(C)CC2)C1` (stereo not given), for which the IC50 was under 50 nM at EGFR (human); under 50 nM in test [1]; 50 to 100 nM in test [2]; under 50 nM in test [3]; 101 to 250 nM in test [4].
On to `C=CC(=O)Nc1cc(Nc2ncc(Cl)c(Nc3ccccc3P(C)(C)=O)n2)c(OC)cc1N1CCC(N2CCOCC2)C1` (stereo not given), for which the IC50 (against EGFR (human); in test [1]; in test [2]; in test [3]; in test [4]) was under 50 nM in each case.
With `C=CC(=O)Nc1cc(Nc2ncc(Cl)c(Nc3ccccc3P(C)(C)=O)n2)c(C)cc1OC(COC)CN(C)C` (stereo not given), the IC50 (against EGFR (human); in test [1]; in test [2]; in test [3]; in test [4]) was under 50 nM throughout.
On to `C=CC(=O)Nc1cc(Nc2ncc(Cl)c(Nc3ccccc3P(C)(C)=O)n2)c(OC)cc1OCCN1CCCC1`, for which the half-inhibitory concentration (IC50) (at EGFR (human); in test [1]; in test [2]; in test [3]; in test [4]) was under 50 nM in each case.
